From PubChem BioAssay (NCI) come the findings set out here.

Among the test systems are SN12C renal; A498 renal; MALME-3M melanoma; HCT-116 colon; IGROV1 ovarian; TK-10 renal; CAKI-1 renal; UO-31 renal; OVCAR-4 ovarian; HCC-2998 colon.
What all share (experiment): inhibition of tumour cell growth, NCI panel, 48 h

Values joined by “and” are separate entries in the source; they are usually repeats but may differ in a detail not shown here. Identical values can stand only once.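 1) Cells in 96-well plates. 2) Compound, 48 h, 5 concentrations. 3) Linear interpolation between surrounding doses. 4) Unreached endpoint = highest concentration. At the GI50, growth is halved. TGI: total growth inhibition.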

As for `CCCC(=O)NNc1[nH]c(-c2ccc(OC)cc2)cc1C(=O)OCC`, the GI50 in the test on SN12C renal was 17.1 µM; in the test with A498 renal, 35.3 µM; in the test on MALME-3M melanoma, 14.5 µM; in the test on HCT-116 colon, 37.2 µM; with IGROV1 ovarian, 21.2 µM; in the test on TK-10 renal it was 15.9 µM. The GI50 in the test with CAKI-1 renal was 12.5 µM; with UO-31 renal it was 19.9 µM; in the test with OVCAR-4 ovarian, 17.1 µM. For the same molecule, the TGI was 30.9 µM in the test on SN12C renal; more than 100 µM in the test on A498 renal; 29.2 µM in the test with MALME-3M melanoma; more than 100 µM with HCT-116 colon; 39.5 µM in the test with IGROV1 ovarian; 30.1 µM with TK-10 renal. Further, the values for the TGI with CAKI-1 renal, in the test with UO-31 renal and with OVCAR-4 ovarian were 25.7 µM, 37.8 µM and 32.3 µM, respectively.
Regarding `CN(CCC(=O)O)S(=O)(=O)c1ccccc1`, the TGI in the test on SN12C renal, in the test with A498 renal, in the test with MALME-3M melanoma, with HCT-116 colon, with IGROV1 ovarian and in the test on TK-10 renal was more than 100 µM in each case. The TGI with CAKI-1 renal, with UO-31 renal and in the test with OVCAR-4 ovarian was more than 100 µM throughout.
In the case of `CCC(=C(c1ccc(OCc2ccccc2)cc1)c1ccc(OCc2ccccc2)cc1)c1ccc(OC)cc1`, the TGI in the test on SN12C renal, in the test with MALME-3M melanoma, in the test on HCC-2998 colon, with HCT-116 colon, in the test with IGROV1 ovarian and in the test with TK-10 renal was more than 100 µM each time. The TGI with CAKI-1 renal, in the test with UO-31 renal and with OVCAR-4 ovarian was more than 100 µM throughout.
`COc1ccc2c(c1)[n+]([O-])c(-c1nc3ccccc3s1)c(N)[n+]2[O-]`: the TGI with SN12C renal, in the test on A498 renal, with MALME-3M melanoma, in the test with HCT-116 colon, in the test on IGROV1 ovarian and in the test with CAKI-1 renal was more than 100 µM in each case. Further, the TGI with UO-31 renal and in the test on OVCAR-4 ovarian was more than 100 µM throughout.
Take `COC1CC2CCC(C)[C@](O)(O2)C(=O)C(=O)N2CCCCC2C(=O)OC(C(C)CC2CCC(O)C(OC)C2)CC(=O)C(C)C=C(C)C(OC(=O)CN(C)C)C(OC)C(=O)C(C)CC(C)/C=C/C=C/C=C\1C` (stereo partly specified): the TGI in the test on SN12C renal was determined as 18.7 µM; in the test on A498 renal, 11.9 µM; in the test on MALME-3M melanoma it was 20.4 µM; with HCT-116 colon, 22.2 µM; in the test with IGROV1 ovarian it was 9.88 µM; with TK-10 renal, 23.8 µM. In the test with UO-31 renal, this molecule had a TGI of 5.27 µM.
Consider `COC(=O)C1=CC2OC1(C)C1(CC1)C2=O` (stereo unspecified), for which the TGI in the test on SN12C renal is 31 µM; with MALME-3M melanoma, 27.8 µM; in the test on HCC-2998 colon, 34.2 µM; in the test with HCT-116 colon it was 27.8 µM; in the test with IGROV1 ovarian, 35.9 µM; with CAKI-1 renal, 33.5 µM. Further, the results for the TGI in the test on UO-31 renal and with OVCAR-4 ovarian were 50 µM and 24 µM, respectively.
Consider `C=CCN(N=O)C(=O)N(CCC)CCCCC(NC(C)=O)C(=O)NCc1ccccc1` (stereo unspecified), for which the TGI with SN12C renal, with A498 renal, in the test on MALME-3M melanoma, with IGROV1 ovarian, with TK-10 renal and in the test on CAKI-1 renal was more than 100 µM each time. Besides, the TGI in the test on UO-31 renal and in the test on OVCAR-4 ovarian was more than 100 µM each time.
For the molecule `O=C(CC1(O)C(=O)Nc2c(Cl)cc(Cl)cc21)c1ccc2ccccc2c1` (stereo unspecified), the TGI in the test with SN12C renal came out at 22.9 µM; with A498 renal it was 24.8 µM; in the test on MALME-3M melanoma, 19.7 µM; in the test on HCT-116 colon it was 13.4 µM; in the test with IGROV1 ovarian it was 23.1 µM; with TK-10 renal it was 27.9 µM. For the same molecule, the TGI in the test with CAKI-1 renal was 19.8 µM; in the test with UO-31 renal it was 24.5 µM; in the test on OVCAR-4 ovarian, 26.4 µM.
For `O=C(CC(=O)C(F)(F)F)c1csc2ccccc12`, the TGI is 75.4 µM in the test on SN12C renal; 67.6 µM with MALME-3M melanoma; more than 100 µM in the test with HCC-2998 colon; more than 100 µM in the test with HCT-116 colon; more than 100 µM with IGROV1 ovarian; 28.4 µM with TK-10 renal. Also, in the test on UO-31 renal, the TGI is more than 100 µM.
As for `Nc1ccn([C@@H]2C=C(CO)[C@@H](O)[C@H]2O)c(=O)n1`, the values for the GI50 in the test with A498 renal and in the test on TK-10 renal were 0.242 µM and 0.184 µM, respectively. Moreover, the TGI with IGROV1 ovarian was 222 µM and > 625 µM; with TK-10 renal it was 431 µM; in the test with CAKI-1 renal it was 4.52 µM and 4.16 µM and 22.2 µM.
`CC1C(=O)N(C)C2(CO)C(=O)O[C@H](C)C12O` (stereo partly specified): the TGI in the test with MALME-3M melanoma, with HCC-2998 colon, with HCT-116 colon, in the test with IGROV1 ovarian, in the test with TK-10 renal and in the test on CAKI-1 renal was more than 100 µM throughout. Further, the TGI in the test with UO-31 renal and in the test on OVCAR-4 ovarian was more than 100 µM each time.
